Source: US11866458B2, “Panaxadiol glycoside derivative and preparation method and application thereof” (SUZHOU JI ER BIOLOGICAL MEDICINE CO., LTD., priority 2018, dated 2024)
Marks after values point to notes of the source that are not given here.

Legend:
ICR mice [1] = experiment: Blood glucose of caudal vein after 6 days of intragastric administration; conditions: for Blood glucose: fasted, caudal vein
Description: The mice were intragastric administration for 6 consecutive days, fasting was started at about 8:00 in the morning on the sixth day, and blood glucose in caudal vein was measured at about 4:00 in the next day.

[2] = tested on: COPD rats induced by smoke exposure; experiment: COPD induced by smoke exposure in rats: lung function FEV0.2/FVC; format: in vivo, Wistar rats; conditions: for FEV2/FVC % (FEV0.2/FVC %, forced expiratory index within 200 ms): 180 days; for effect in COPD rats compared with inhaled budesonide: high dose group, oral
[3] = tested on: inflammatory cells in bronchoalveolar lavage fluid of mice; experiment: Determination of inflammatory cells in bronchoalveolar lavage fluid of mice (OVA asthma model); format: in vivo, BALB/C mice; design: unit not given here
Description: 144 6-week-old BALB/C mice (18-20 g) were divided into 24 groups: control group, placebo group, dexamethasone group (3 mg/kg) and the drug groups. There were 6 in each group. The control group was given normal saline without any treatment. The other groups were sensitized by intraperitoneal injection of OVA 20 μg and aluminum hydroxide 200 μL PBC (2 mg, prepared into emulsion). […] On day 21, 22 and 23, the therapeutic agent (i.e. 3 mg/kg dexamethasone in the positive control group and oral administration in the drug group) was given orally. From day 17 to 23, PBS was given to the control group and placebo group respectively, PBS (without OVA) was given to the control group. On day 0 and day 14, the normal saline was nebulized for 30 minutes to remove the aluminum hydroxide on day 21, 22 and 23 See in Table 2.

ICR mice [4] = experiment: Blood routine test after 6 days of intragastric administration; conditions: for WBC: 1 hour after last dose
Description: Mice were intragastric administration for 6 consecutive days, and sufficient blood samples were taken for blood routine test 1 hour after the last dose.

[5] = tested on: mouse asthma model induced by OVA; experiment: Asthma induced by ovalbumin in Balb/c mice: IgE level in serum by ELISA; format: in vivo; conditions: oral
[6] = after inhalation; cited from earlier work
[7] = 225 mg/kg, intragastric, 6 days
[8] = Table 1-1 (1st time), 20 mg/kg, 24 hours after last OVA stimulation
[9] = 1.8 mg/kg, intragastric, 6 days
[10] = 3 mg/kg, oral (positive control)

SMILES | FEV2/FVC % (FEV0.2/FVC %, forced expiratory index within 200 ms) ([2]; 20 mg/kg oral) | FEV2/FVC % (FEV0.2/FVC %, forced expiratory index within 200 ms) ([2]; 40 mg/kg oral) | FEV2/FVC % (FEV0.2/FVC %, forced expiratory index within 200 ms) ([2]; 80 mg/kg oral) | effect in COPD rats compared with inhaled budesonide [2] | Acidic cells in bronchoalveolar lavage fluid ([3]; 2 mg/kg, oral) | Neutral cells in bronchoalveolar lavage fluid ([3]; 2 mg/kg, oral) | lymphocyte in bronchoalveolar lavage fluid ([3]; 2 mg/kg, oral) | Acidic cells in bronchoalveolar lavage fluid ([3]; 20 mg/kg, oral) | Neutral cells in bronchoalveolar lavage fluid ([3]; 20 mg/kg, oral) | Total inflammatory cells in bronchoalveolar lavage fluid ([3]; 20 mg/kg, oral) | lymphocyte in bronchoalveolar lavage fluid ([3]; 20 mg/kg, oral) | Acidic cells in bronchoalveolar lavage fluid ([3]; 200 mg/kg, oral) | Neutral cells in bronchoalveolar lavage fluid ([3]; 200 mg/kg, oral) | Total inflammatory cells in bronchoalveolar lavage fluid ([3]; 200 mg/kg, oral) | lymphocyte in bronchoalveolar lavage fluid ([3]; 200 mg/kg, oral) | Concentration of IgE in serum [5, 8] | Concentration of IgE in serum ([5]; Table 1-2 (2nd time), 15 mg/kg) | Concentration of IgE in serum ([5]; Table 1-2 (2nd time), 30 mg/kg) | Concentration of IgE in serum ([5]; Table 1-2 (2nd time), 60 mg/kg) | other results
CC(C)=CCC[C@](C)(O[C@@H]1O[C@H](CO)[C@@H](O)[C@H](O)[C@H]1O)[C@H]1CC[C@]2(C)[C@@H]1[C@H](O)C[C@@H]1[C@@]3(C)CC[C@H](O)C(C)(C)[C@@H]3CC[C@]12C [CK, ginsenoside compound K, reference compound] | 61.29 ± 11.76% | 70.89 ± 10.56 % | 80.24 ± 13.73 % | superior to budesonide | 32.47 ± 20.33 | 15.24 ± 7.94 | 16.81 ± 9.88 | 16.39 ± 9.67 | 8.78 ± 5.33 | 24.87 ± 20.58 | 10.15 ± 7.34 | 13.12 ± 7.38 | 4.32 ± 3.16 | 22.38 ± 12.69 | 7.42 ± 4.53 | 1701.85 ± 284.66 ng/mL | 1921.25 ± 160.12 ng/mL | 1676.69 ± 159.13 ng/mL | 1501.85 ± 110.68 ng/mL | blood glucose related changes (ICR mice [1]; [7]): no blood glucose related changes; Blood glucose (ICR mice [1]; [7]): 3.18 ± 0.28 mmol/L; Ba % (ICR mice [4]; [7]): 0.01 ± 0.02%; Eo % (ICR mice [4]; [7]): 0.75 ± 0.71%; Ly % (ICR mice [4]; [7]): 62.54 ± 30.29%; Mo % (ICR mice [4]; [7]): 6.01 ± 8.91%; Ne % (ICR mice [4]; [7]): 31.39 ± 2.72%; hematological related changes (ICR mice [4]; [7]): no hematological related changes; WBC (ICR mice [4]; [7]): 4.96 ± 2.14 10^2/mm^3
CC(=O)OCC(=O)[C@@]1(O)[C@H](C)C[C@H]2[C@@H]3CCC4=CC(=O)C=C[C@]4(C)[C@@]3(F)[C@@H](O)C[C@@]21C [Dexamethasone acetate tablets, Dexamethasone acetate] | – | – | – | – | – | – | – | – | – | – | – | – | – | – | – | – | – | – | – | blood glucose in mice compared with blank control group (ICR mice [1]; 1.8 mg/kg): increase blood glucose; Blood glucose (ICR mice [1]; [9]): 5.78 ± 0.36 mmol/L; Acidic cells in bronchoalveolar lavage fluid [3, 10]: 7.49 ± 5.25; Neutral cells in bronchoalveolar lavage fluid [3, 10]: 9.64 ± 5.16; Total inflammatory cells in bronchoalveolar lavage fluid [3, 10]: 36.12 ± 14.89; lymphocyte in bronchoalveolar lavage fluid [3, 10]: 8.46 ± 5.73; leukocyte count compared to blank control group (ICR mice [4]; 1.8 mg/kg): decreased significantly; lymphocyte percentage compared to blank control group (ICR mice [4]; 1.8 mg/kg): decreased significantly; monocyte percentage compared to blank control group (ICR mice [4]; 1.8 mg/kg): increased significantly; neutrophil percentage compared to blank control group (ICR mice [4]; 1.8 mg/kg): increased significantly; Ba % (ICR mice [4]; [9]): 0.04 ± 0.03%; Eo % (ICR mice [4]; [9]): 0.09 ± 0.02%; Ly % (ICR mice [4]; [9]): 42.59 ± 28.17 %; Mo % (ICR mice [4]; [9]): 12.08 ± 6.28 %; Ne % (ICR mice [4]; [9]): 45.17 ± 16.22 %; WBC (ICR mice [4]; [9]): 1.26 ± 0.49** 10^2/mm^3; Concentration of IgE in serum ([5]; Table 1-1 (1st time), 0.6 mg/kg, 24 hours after last OVA stimulation): 1131.05 ± 211.85 ng/mL; Concentration of IgE in serum ([5]; Table 1-2 (2nd time), 0.6 mg/kg): 1367.07 ± 103.80 ng/mL
CC(C)=CCC[C@](C)(O[C@H]1OC(CO)[C@@H](O)[C@H](O)C1O)C1CC[C@]2(C)C1C(=O)CC1[C@@]3(C)CC[C@H](O)C(C)(C)C3CC[C@]12C (stereo partly drawn) [ID, 3β-hydroxyl-20(S)—O-α-D-mannopyranosyl dammarane-24-ene-12-one] | 66.28 ± 13.54% | 75.23 ± 10.71 % | 86.34 ± 8.60 % | superior to budesonide | 34.15 ± 18.88 | 13.18 ± 7.76 | 14.38 ± 8.71 | 15.17 ± 8.34 | 6.26 ± 4.73 | 29.46 ± 13.56 | 8.92 ± 6.89 | 6.79 ± 3.87 | 4.39 ± 3.13 | 13.81 ± 6.76 | 4.16 ± 317 | 1336.96 ± 211.85 ng/mL | 1571.67 ± 134.04 ng/mL | 1427.83 ± 164.28 ng/mL | 1264.95 ± 127.60 ng/mL | Total inflammatory cells in bronchoalveolar lavage fluid ([3]; 2 mg/kg, oral): 46.39 ± 22.74; content of IgE in mice serum (conclusion in words) ([5]; model of mouse asthma induced by OVA, samples): significantly reduce; therapeutic effect on bronchial asthma induced by OVA ([5]; mouse): obvious therapeutic effect
CC(C)=CCC[C@](C)(O[C@@H]1OC(CO)[C@@H](O)[C@H](O)C1O)C1CC[C@]2(C)C1/C(=N\O)CC1[C@@]3(C)CC/C(=N\O)C(C)(C)C3CC[C@]12C (stereo partly drawn) [IVA, 20(S)—O-β-D-glucopyranosyl dammarane-3,12-hydroxyl imino-24-ene-12-one] | 66.25 ± 11.49% | 75.98 ± 9.26 % | 88.33 ± 12.49 % | superior to budesonide | 29.09 ± 4.83 | 9.15 ± 5.68 | 15.35 ± 9.23 | 15.83 ± 2.88 | 7.38 ± 3.09 | 32.46 ± 17.21 | 5.24 ± 3.34 | 4.45 ± 2.14 | 6.17 ± 4.09 | 14.69 ± 5.77 | 4.19 ± 3.48 | 1358.27 ± 248.70 ng/mL | 2026.13 ± 273.15 ng/mL | 1927.60 ± 151.61 ng/mL | 1723.86 ± 167.59 ng/mL | –
CC(C)C(=O)OCC(=O)[C@@]12O[C@H](C3CCCCC3)O[C@@H]1C[C@H]1[C@@H]3CCC4=CC(=O)C=C[C@]4(C)[C@H]3[C@@H](O)C[C@@]12C [ciclesonide] | – | – | – | – | – | – | – | – | – | – | – | – | – | – | – | – | – | – | – | bioavailability in vivo [6]: less than 1%
